Experimental findings from patent US10787442B2, “Modulators of indoleamine 2,3-dioxygenase” (GLAXOSMITHKLINE INTELLECTUAL PROPERTY DEVELOPMENT LIMITED, priority 2016, dated 2020) are described below.

In the series the test system is human peripheral blood mononuclear cells (PBMC). The experiment in a line: PBMC cytotoxicity assay (CellTiter-Glo). The conditions noted are these: cytotoxicity in stimulated PBMC, recorded as pCC50. The format is cell-based. On the procedure: Compounds of the present invention were tested via high-throughput cellular assays utilizing detection of kynurenine via mass spectrometry and cytotoxicity as end-points. […] Compounds with IDO1 inhibitory properties decreased the amount of kynurenine produced by the cells via the tryptophan catabolic pathway. Cellular toxicity due to the effect of compound treatment was measured using CellTiter-Glo® reagent (CTG) (Promega Corporation, Madison, Wis.), which is based on luminescent detection of ATP, an indicator of metabolically active cells.
In preparation for the assays, test compounds were serially diluted 3-fold in DMSO from a typical top concentration of 1 mM or 5 mM and plated at 0.5 μL in 384-well, polystyrene, clear bottom, tissue culture treated plates with lids (Greiner Bio-One, Kremsmünster, Austria) to generate 11-point dose response curves. Low control wells (0% kynurenine or 100% cytotoxicity) contained either 0.5 μL of DMSO in the presence of unstimulated (−IFN-γ/−LPS) PBMCs for the mass spectrometry assay or 0.5 μL of DMSO in the absence of cells for the cytotoxicity assay, and high control wells (100% kynurenine or 0% cytotoxicity) contained 0.5 μL of DMSO in the presence of stimulated (+IFN-γ/+LPS) PBMCs for both the mass spectrometry and cytotoxicity assays.
Frozen stocks of PBMCs were washed and recovered in RPMI 1640 medium (Thermo Fisher Scientific, Inc., Waltham, Mass.) supplemented with 10% v/v heat-inactivated fetal bovine serum (FBS) (Thermo Fisher Scientific, Inc., Waltham, Mass.), and 1× penicillin-streptomycin antibiotic solution (Thermo Fisher Scientific, Inc., Waltham, Mass.). The cells were diluted to 1,000,000 cells/mL in the supplemented RPMI 1640 medium. 50 μL of either the cell suspension, for the mass spectrometry assay, or medium alone, for the cytotoxicity assay, were added to the low control wells, on the previously prepared 384-well compound plates, resulting in 50,000 cells/well or 0 cells/well respectively. IFN-γ and LPS were added to the remaining cell suspension at final concentrations of 100 ng/ml and 50 ng/ml respectively, and 50 μL of the stimulated cells were added to all remaining wells on the 384-well compound plates. The plates, with lids, were then placed in a 37° C., 5% CO2 humidified incubator for 2 days.
Following incubation, the 384-well plates were removed from the incubator and allowed to equilibrate to room temperature for 30 minutes. For the cytotoxicity assay, CellTiter-Glo® was prepared according to the manufacturer's instructions, and 40 μL were added to each plate well. After a twenty minute incubation at room temperature, luminescence was read on an EnVision® Multilabel Reader (PerkinElmer Inc., Waltham, Mass.). For the mass spectrometry assay, 10 μL of supernatant from each well of the compound-treated plates were added to 40 μL of acetonitrile, containing 10 μM of an internal standard for normalization, in 384-well, polypropylene, V-bottom plates (Greiner Bio-One, Kremsmünster, Austria) to extract the organic analytes. Following centrifugation at 2000 rpm for 10 minutes, 10 μL from each well of the acetonitrile extraction plates were added to 90 μL of sterile, distilled H2O in 384-well, polypropylene, V-bottom plates for analysis of kynurenine and the internal standard on the RapidFire 300 (Agilent Technologies, Santa Clara, Calif.) and 4000 QTRAP MS (SCIEX, Framingham, Mass.). MS data were integrated using Agilent Technologies' RapidFire Integrator software, and data were normalized for analysis as a ratio of kynurenine to the internal standard.
A general note: In ATP-based viability assays light output follows the ATP content of the culture.

Some results are limits rather than exact numbers.

In the case of `CC(C)CN(c1ncc([C@H](C)CC(=O)O)cc1Nc1ccc(C#N)nn1)C1CCOCC1` [Example 74, (3R)-3-{5-[(6-cyanopyridazin-3-yl)amino]-6-[(2-methylpropyl)(oxan-4-yl)amino]pyridin-3-yl}butanoic acid], the “PBMC_TOX PXC50” value is under 5.0.
To `COC(=O)c1c[nH]c(Nc2cc([C@H](C)CC(=O)O)cnc2N(CC(C)C)C2CCOCC2)n1` [Example 50, (3R)-3-(5-{[4-(methoxycarbonyl)-1H-imidazol-2-yl]amino}-6-[(2-methylpropyl)(oxan-4-yl)amino]pyridin-3-yl)butanoic acid] belongs under 5.0; to `CC(C)CN(c1ncc([C@H](C)CC(=O)O)cc1Nc1cnc(Cl)cn1)C1CCOCC1` [Example 77, (3R)-3-{5-[(5-chloropyrazin-2-yl)amino]-6-[(2-methylpropyl)(oxan-4-yl)amino]pyridin-3-yl}butanoic acid], under 5.0.
To `CC(C)CN(c1ncc([C@H](C)CC(=O)O)cc1Nc1n[nH]c(C(F)(F)F)n1)C1CCCCC1` [Example 10, (R)-3-(6-(cyclohexyl(isobutyl)amino)-5-((5-(trifluoromethyl)-1H-1,2,4-triazol-3-yl)amino)pyridin-3-yl)butanoic acid] belongs under 5.0.
The same measure for `Cc1ccc(CC(=O)Nc2cc([C@H](C)CC(=O)O)cnc2N(CC(C)C)C2CC3(C2)CN(C(=O)OC(C)(C)C)C3)cc1` [Example 55, (3R)-3-[6-({2-[(tert-butoxy)carbonyl]-2-azaspiro[3.3]heptan-6-yl}(2-methylpropyl)amino)-5-[2-(4-methylphenyl)acetamido]pyridin-3-yl]butanoic acid]: under 5.0; for `CC(C)CN(CC(F)F)c1ncc([C@H](C)CC(=O)O)cc1Nc1ccc(Cl)cn1` [Example 71, (3R)-3-{5-[(5-chloropyridin-2-yl)amino]-6-[(2,2-difluoroethyl)(2-methylpropyl)amino]pyridin-3-yl}butanoic acid]: under 5.0; for `COC1CCC(N(CC(C)C)c2ncc(C(C)CC(=O)O)cc2Nc2ccc(C#N)cn2)CC1` (stereo not drawn) [Example 53, (3RS)-3-{5-[(5-cyanopyridin-2-yl)amino]-6-[(2-methylpropyl)[(1rs&,4rs&)-4-methoxycyclohexyl]amino]pyridin-3-yl}butanoic acid]: under 5.0.
As to `CO[C@H]1CC[C@@H](N(CC(C)C)c2ncc([C@H](C)CC(=O)O)cc2Nc2ccc(C#N)cn2)CC1` [Example 25, (R)-3-(5-((5-cyanopyridin-2-yl)amino)-6-(isobutyl((1s,4S)-4-methoxycyclohexyl)amino)pyridin-3-yl)butanoic acid], the “PBMC_TOX PXC50” value is on record as under 5.0.
The same measure for `CC(C)CN(CC(C)C)c1nnc(C(C)CC(=O)O)cc1Nc1nc(C(F)(F)F)ns1` (stereo not shown) [Example 72, 3-{6-[bis(2-methylpropyl)amino]-5-{[3-(trifluoromethyl)-1,2,4-thiadiazol-5-yl]amino}pyridazin-3-yl}butanoic acid]: under 5.0; for `COC1CCC(N(CC(C)C)c2ncc(C(C)CC(=O)O)cc2Nc2nc(Cl)ns2)CC1` (stereo not drawn) [Example 46, (3RS)-3-{5-[(3-chloro-1,2,4-thiadiazol-5-yl)amino]-6-[(2-methylpropyl)[(1rs&,4rs&)-4-methoxycyclohexyl]amino]pyridin-3-yl}butanoic acid]: under 5.0; for `CC(C)CN(c1ncc([C@H](C)CC(=O)O)cc1Nc1nc(C(F)(F)F)ns1)[C@H]1CC[C@H](O)CC1` [Example 28, (R)-3-(6-(((1r,4R)-4-hydroxycyclohexyl)(isobutyl)amino)-5-((3-(trifluoromethyl)-1,2,4-thiadiazol-5-yl)amino)pyridin-3-yl)butanoic acid]: under 5.0.
The same measure for `CO[C@H]1CC[C@@H](N(CC(C)C)c2ncc([C@H](C)CC(=O)O)cc2Nc2nc(Cl)ns2)CC1` [Example 21, (R)-3-(5-((3-chloro-1,2,4-thiadiazol-5-yl)amino)-6-(isobutyl((1s,4S)-4-methoxycyclohexyl)amino)pyridin-3-yl)butanoic acid]: under 5.0; for `CC(C)CN(CC(C)C)c1ncc([C@H](C)CC(=O)O)cc1Nc1nc(C(C)C)ns1` [Example 54, (3R)-3-{6-[bis(2-methylpropyl)amino]-5-{[3-(propan-2-yl)-1,2,4-thiadiazol-5-yl]amino}pyridin-3-yl}butanoic acid]: under 5.0; for `CC(C)CN(c1ncc([C@H](C)CC(=O)O)cc1Nc1cnc(C#N)cn1)C1CCOCC1` [Example 67, (3R)-3-{5-[(5-cyanopyrazin-2-yl)amino]-6-[(2-methylpropyl)(oxan-4-yl)amino]pyridin-3-yl}butanoic acid]: under 5.0.
To `CC(C)CN(c1ncc([C@H](C)CC(=O)NS(C)(=O)=O)cc1Nc1ccc(Cl)cn1)C1CCOCC1` [Example 79, (3R)-3-{5-[(5-chloropyridin-2-yl)amino]-6-[(2-methylpropyl)(oxan-4-yl)amino]pyridin-3-yl}-N-methanesulfonylbutanamide] belongs under 5.0; to `CC(C)CN(c1ncc([C@H](C)CC(=O)O)cc1Nc1nc(Cl)ns1)C1CCOCC1` [Example 39, (3R)-3-{5-[(3-chloro-1,2,4-thiadiazol-5-yl)amino]-6-[(2-methylpropyl)(oxan-4-yl)amino]pyridin-3-yl}butanoic acid], under 5.0; to `COCc1ccc(Nc2cc([C@H](C)CC(=O)O)cnc2N(CC(C)C)[C@H]2CC[C@@H](OC)CC2)nc1` [Example 58, (3R)-3-(5-{[5-(methoxymethyl)pyridin-2-yl]amino}-6-[(2-methylpropyl)[(1s,4s)-4-methoxycyclohexyl]amino]pyridin-3-yl)butanoic acid], under 5.0.
In the case of `CNC(=O)c1nnc(Nc2cc([C@H](C)CC(=O)O)cnc2N(CC(C)C)C2CCCCC2)s1` [Example 64, (3R)-3-{6-[cyclohexyl(2-methylpropyl)amino]-5-{[5-(methylcarbamoyl)-1,3,4-thiadiazol-2-yl]amino}pyridin-3-yl}butanoic acid], the “PBMC_TOX PXC50” value is under 5.0.
To `CC(C)CN(c1ncc([C@H](C)CC(=O)O)cc1Nc1ccc(Cl)cn1)C1CCCCC1` [Example 13, (R)-3-(5-((5-chloropyridin-2-yl)amino)-6-(cyclohexyl(isobutyl)amino)pyridin-3-yl)butanoic acid] belongs under 5.0; to `CC(C)CN(c1ncc([C@H](C)CC(=O)O)cc1Nc1nc(C(C)C)ns1)C1CCCCC1` [Example 14, (R)-3-(6-(cyclohexyl(isobutyl)amino)-5-((3-isopropyl-1,2,4-thiadiazol-5-yl)amino)pyridin-3-yl)butanoic acid], under 5.0.
As to `CC(C)CN(c1ncc([C@H](C)CC(=O)O)cc1Nc1nc(C(C)C)ns1)C1CCOCC1` [Example 8], the “PBMC_TOX PXC50” value was under 5.0.
Turning to `CC(C)CN(c1ncc([C@H](C)CC(=O)O)cc1Nc1n[nH]c(C(N)=O)n1)C1CCOCC1` [Example 44, (3R)-3-{5-[(5-carbamoyl-1H-1,2,4-triazol-3-yl)amino]-6-[(2-methylpropyl)(oxan-4-yl)amino]pyridin-3-yl}butanoic acid], the “PBMC_TOX PXC50” value is recorded as under 5.0.
